Reference: US7642221B2, “Substituted thien-3-yl-sulphonylamino(thio)carbonyl-triazoline(ethi)ones” (Bayer Aktiengesellschaft, priority 1999, dated 2010)

What was measured:
Format in all cases: in vivo
Abutilon [1] = test: Pre-emergence test/greenhouse; conditions: greenhouse, rated after three weeks
Method: (§1) • Solvent: 5 parts by weight of acetone • Emulsifier: 1 part by weight of alkylaryl polyglycol ether
(§2) To produce a suitable preparation of active compound, 1 part by weight of active compound is mixed with the stated amount of solvent, the stated amount of emulsifier is added and the concentrate is diluted with water to the desired concentration.
(§3) Seeds of the test plants are sown in normal soil. After about 24 hours, the soil is sprayed with the preparation of active compound such that the particular amount of active compound desired is applied per unit area. The concentration of the spray liquor is chosen so that the particular amount of active compound desired is applied in 1000 liters of water per hectare.
(§4) After three weeks, the degree of damage to the plants is rated in % damage in comparison to the development of the untreated control.
(§5) The figure denote: • 0%=no effect (like untreated control) • 100%=total destruction

Alopecurus [2] = test: Pre-emergence test/greenhouse; conditions: greenhouse, rated after three weeks
Method: as §1, §2, §3, §4, §5

Amaranthus [3] = test: Pre-emergence test/greenhouse; conditions: greenhouse, rated after three weeks
Method: as §1, §2, §3, §4, §5

Xanthium [4] = test: Pre-emergence test/greenhouse; conditions: greenhouse, rated after three weeks
Method: as §1, §2, §3, §4, §5

Cyperus = test: Pre-emergence test/greenhouse; conditions: greenhouse, rated after three weeks
Method: as §1, §2, §3, §4, §5

Setaria [5] = test: Pre-emergence test/greenhouse; conditions: greenhouse, rated after three weeks
Method: as §1, §2, §3, §4, §5

Sinapis [6] = test: Pre-emergence test/greenhouse; conditions: greenhouse, rated after three weeks
Method: as §1, §2, §3, §4, §5

weeds [7] = test: Pre-emergence test, activity against weeds
Method: as §1, §2, §3, §4, §5

Abutilon [8] = test: Post-emergence test/greenhouse; conditions: greenhouse, rated after three weeks
Method: as §1
(§6) To produce a suitable preparation of active compound, one part by weight of active compound is mixed with the stated amount of solvent, the stated amount of emulsifier is added and the concentrate is diluted with water to the desired concentration.
(§7) Test plants which have a height of 5-15 cm are sprayed with the preparation of active compound such that the particular amounts of active compound desired are applied per unit area. The concentration of the spray liquor is chosen so that the particular amounts of active compound desired are applied in 1000 l of water/ha.
as §4
(§8) The figures denote: • 0%=no effect (like untreated control) • 100%=total destruction

Alopecurus [9] = test: Post-emergence test/greenhouse; conditions: greenhouse, rated after three weeks
Method: as §1, §6, §7, §4, §8

Amaranthus [10] = test: Post-emergence test/greenhouse; conditions: greenhouse, rated after three weeks
Method: as §1, §6, §7, §4, §8

Xanthium [11] = test: Post-emergence test/greenhouse; conditions: greenhouse, rated after three weeks
Method: as §1, §6, §7, §4, §8

Setaria [12] = test: Post-emergence test/greenhouse; conditions: greenhouse, rated after three weeks
Method: as §1, §6, §7, §4, §8

Avenafatua = test: Post-emergence test/greenhouse; conditions: greenhouse, rated after three weeks
Method: as §1, §6, §7, §4, §8

Sinapis [13] = test: Post-emergence test/greenhouse; conditions: greenhouse, rated after three weeks
Method: as §1, §6, §7, §4, §8

weeds [14] = test: Post-emergence test, activity against weeds
Method: as §1, §6, §7, §4, §8

Galium = test: Pre-emergence test/greenhouse; conditions: greenhouse, 250 g of ai/ha, rated after three weeks
Method: as §1, §2, §3, §4, §5

## COC(=O)c1csc(C)c1S(=O)(=O)NC(=O)n1nc(OC)n(C)c1=O [Example 2]
Abutilon [1]; 60 g of ai/ha
  degree of damage to the plants, Abutilon: 95%
Alopecurus [2]; 60 g of ai/ha
  degree of damage to the plants, Alopecurus: 95%
Amaranthus [3]; 60 g of ai/ha
  degree of damage to the plants, Amaranthus: 100%
Xanthium [4]; 60 g of ai/ha
  degree of damage to the plants, Xanthium: 100%
Cyperus; 60 g of ai/ha
  degree of damage to the plants, Cyperus: 100%
Setaria [5]; 60 g of ai/ha
  degree of damage to the plants, Setaria: 95%
Sinapis [6]; 60 g of ai/ha
  degree of damage to the plants, Sinapis: 95%
Weeds [7]
  activity against weeds: very strong activity
Abutilon [8]; 60 g of ai/ha
  degree of damage to the plants, Abutilon: 100%
Alopecurus [9]; 60 g of ai/ha
  degree of damage to the plants, Alopecurus: 95%
Amaranthus [10]; 60 g of ai/ha
  degree of damage to the plants, Amaranthus: 100%
Xanthium [11]; 60 g of ai/ha
  degree of damage to the plants, Xanthium: 100%
Setaria [12]; 60 g of ai/ha
  degree of damage to the plants, Setaria: 100%
Avenafatua; 60 g of ai/ha
  degree of damage to the plants, Avenafatua: 80%
Sinapis [13]; 60 g of ai/ha
  degree of damage to the plants, Sinapis: 100%
Weeds [14]
  activity against weeds: very strong activity

## CCOc1nn(C(=O)NS(=O)(=O)c2c(C(=O)OC)csc2C)c(=O)n1C1CC1 [Example 6]
Abutilon [1]; 250 g of ai/ha
  degree of damage to the plants, Abutilon: 100%
Galium
  degree of damage to the plants, Galium: 90%
Alopecurus [2]; 250 g of ai/ha
  degree of damage to the plants, Alopecurus: 95%
Amaranthus [3]; 250 g of ai/ha
  degree of damage to the plants, Amaranthus: 95%
Xanthium [4]; 250 g of ai/ha
  degree of damage to the plants, Xanthium: 95%
Cyperus; 250 g of ai/ha
  degree of damage to the plants, Cyperus: 100%
Setaria [5]; 250 g of ai/ha
  degree of damage to the plants, Setaria: 100%
Sinapis [6]; 250 g of ai/ha
  degree of damage to the plants, Sinapis: 95%
Weeds [7]
  activity against weeds: very strong activity
Abutilon [8]; 250 g of ai/ha
  degree of damage to the plants, Abutilon: 100%
Alopecurus [9]; 250 g of ai/ha
  degree of damage to the plants, Alopecurus: 100%
Amaranthus [10]; 250 g of ai/ha
  degree of damage to the plants, Amaranthus: 100%
Xanthium [11]; 250 g of ai/ha
  degree of damage to the plants, Xanthium: 100%
Setaria [12]; 250 g of ai/ha
  degree of damage to the plants, Setaria: 100%
Avenafatua; 250 g of ai/ha
  degree of damage to the plants, Avenafatua: 100%
Sinapis [13]; 250 g of ai/ha
  degree of damage to the plants, Sinapis: 100%
Weeds [14]
  activity against weeds: very strong activity

## CCCOc1nn(C(=O)NS(=O)(=O)c2c(C(=O)OC)csc2C)c(=O)n1C1CC1 [Example 7]
Abutilon [1]; 250 g of ai/ha
  degree of damage to the plants, Abutilon: 95%
Galium
  degree of damage to the plants, Galium: 95%
Alopecurus [2]; 250 g of ai/ha
  degree of damage to the plants, Alopecurus: 90%
Amaranthus [3]; 250 g of ai/ha
  degree of damage to the plants, Amaranthus: 95%
Cyperus; 250 g of ai/ha
  degree of damage to the plants, Cyperus: 100%
Setaria [5]; 250 g of ai/ha
  degree of damage to the plants, Setaria: 95%
Sinapis [6]; 250 g of ai/ha
  degree of damage to the plants, Sinapis: 95%
Weeds [7]
  activity against weeds: very strong activity
Abutilon [8]; 250 g of ai/ha
  degree of damage to the plants, Abutilon: 100%
Alopecurus [9]; 250 g of ai/ha
  degree of damage to the plants, Alopecurus: 95%
Amaranthus [10]; 250 g of ai/ha
  degree of damage to the plants, Amaranthus: 100%
Xanthium [11]; 250 g of ai/ha
  degree of damage to the plants, Xanthium: 90%
Setaria [12]; 250 g of ai/ha
  degree of damage to the plants, Setaria: 90%
Avenafatua; 250 g of ai/ha
  degree of damage to the plants, Avenafatua: 100%
Sinapis [13]; 250 g of ai/ha
  degree of damage to the plants, Sinapis: 100%
Weeds [14]
  activity against weeds: very strong activity

## COC(=O)c1csc(C)c1S(=O)(=O)NC(=O)n1nc(C2CC2)n(C2CC2)c1=O [Example 9]
Abutilon [1]; 250 g of ai/ha
  degree of damage to the plants, Abutilon: 100%
Galium
  degree of damage to the plants, Galium: 95%
Alopecurus [2]; 250 g of ai/ha
  degree of damage to the plants, Alopecurus: 95%
Amaranthus [3]; 250 g of ai/ha
  degree of damage to the plants, Amaranthus: 100%
Cyperus; 250 g of ai/ha
  degree of damage to the plants, Cyperus: 100%
Setaria [5]; 250 g of ai/ha
  degree of damage to the plants, Setaria: 100%
Sinapis [6]; 250 g of ai/ha
  degree of damage to the plants, Sinapis: 95%
Weeds [7]
  activity against weeds: very strong activity
Abutilon [8]; 250 g of ai/ha
  degree of damage to the plants, Abutilon: 100%
Alopecurus [9]; 250 g of ai/ha
  degree of damage to the plants, Alopecurus: 100%
Amaranthus [10]; 250 g of ai/ha
  degree of damage to the plants, Amaranthus: 100%
Xanthium [11]; 250 g of ai/ha
  degree of damage to the plants, Xanthium: 100%
Setaria [12]; 250 g of ai/ha
  degree of damage to the plants, Setaria: 100%
Avenafatua; 250 g of ai/ha
  degree of damage to the plants, Avenafatua: 100%
Sinapis [13]; 250 g of ai/ha
  degree of damage to the plants, Sinapis: 100%
Weeds [14]
  activity against weeds: very strong activity
